Results from the supplement of paper PMC10307832.

Tests used:
Assay in all cases: relative viability (nuclei count vs DMSO), 5 days (fraction); higher = more cells survive
[1] = compound: Cn1nnc2c(C(N)=O)ncn2c1=O [Temozolomide] + Cc1nc(NC(=O)N2CCC[C@H]2C(N)=O)sc1-c1ccnc(C(C)(C)C(F)(F)F)c1 [Alpelisib] (partner 2 µM)
How it was run: (§1)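 Lung cancer cell lines in 1536-well plates got either a single drug or a fixed anchor-drug dose together with five library-drug doses (not always all listed) in √10 steps, by pin tool, on the day after seeding. Nuclei were counted after 5 days, and relative viability is the treated-to-vehicle ratio of nuclei counts. Values are medians of duplicate plates.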

[2] = compound: Cn1nnc2c(C(N)=O)ncn2c1=O [Temozolomide] + COc1cccc2cc(-c3nc([C@H]4CC[C@H](C(=O)O)CC4)n4ncnc(N)c34)[nH]c12 [OSI-027] (partner 0.5 µM)
How it was run: as §1

[3] = compound: Cn1nnc2c(C(N)=O)ncn2c1=O [Temozolomide] + O=C(CCCCCCC(=O)Nc1ccccc1)NO [Vorinostat] (partner 1 µM)
How it was run: as §1

[4] = compound: C[C@@H](C(=O)N[C@@H](C1CCCCC1)C(=O)N2CCC[C@H]2C(=O)N[C@@H]3[C@@H](CC4=CC=CC=C34)OCC#CC#CCO[C@@H]5CC6=CC=CC=C6[C@@H]5NC(=O)[C@@H]7CCCN7C(=O)[C@H](C8CCCCC8)NC(=O)[C@H](C)NC)NC [AZD5582] + Cc1nc(Nc2ncc(C(=O)Nc3c(C)cccc3Cl)s2)cc(N2CCN(CCO)CC2)n1 [Dasatinib] (partner 0.075 µM)
How it was run: as §1

## NCI-H1993
[1]; first compound 0.2 µM
  relative viability: 0.678
[1]; first compound 0.6325 µM
  relative viability: 0.734
[1]; first compound 2 µM
  relative viability: 0.742
[1]; first compound 6.325 µM
  relative viability: 0.693
[1]; first compound 20 µM
  relative viability: 0.64
[2]; first compound 0.2 µM
  relative viability: 0.522
[2]; first compound 0.6325 µM
  relative viability: 0.556
[2]; first compound 2 µM
  relative viability: 0.536
[2]; first compound 6.325 µM
  relative viability: 0.535
[2]; first compound 20 µM
  relative viability: 0.621
[3]; first compound 0.2 µM
  relative viability: 0.546
[3]; first compound 0.6325 µM
  relative viability: 0.829
[3]; first compound 2 µM
  relative viability: 1.07
[3]; first compound 6.325 µM
  relative viability: 0.798
[3]; first compound 20 µM
  relative viability: 0.507
[4]; first compound 0.001581 µM
  relative viability: 0.634
[4]; first compound 0.005 µM
  relative viability: 0.576
[4]; first compound 0.01581 µM
  relative viability: 0.557
[4]; first compound 0.05 µM
  relative viability: 0.573

## BEN
[1]; first compound 0.2 µM
  relative viability: 0.914
[1]; first compound 0.6325 µM
  relative viability: 1.29
[1]; first compound 2 µM
  relative viability: 0.939
[1]; first compound 6.325 µM
  relative viability: 0.977
[1]; first compound 20 µM
  relative viability: 0.757
[2]; first compound 0.2 µM
  relative viability: 0.326
[2]; first compound 0.6325 µM
  relative viability: 0.289
[2]; first compound 2 µM
  relative viability: 0.296
[2]; first compound 6.325 µM
  relative viability: 0.283
[2]; first compound 20 µM
  relative viability: 0.306
[3]; first compound 0.2 µM
  relative viability: 0.567
[3]; first compound 0.6325 µM
  relative viability: 0.558
[3]; first compound 2 µM
  relative viability: 0.652
[3]; first compound 6.325 µM
  relative viability: 0.58
[3]; first compound 20 µM
  relative viability: 0.552
[4]; first compound 0.001581 µM
  relative viability: 0.329
[4]; first compound 0.005 µM
  relative viability: 0.344
[4]; first compound 0.01581 µM
  relative viability: 0.289
[4]; first compound 0.05 µM
  relative viability: 0.304

## NCI-H2009
[1]; first compound 0.2 µM
  relative viability: 1.15
[1]; first compound 0.6325 µM
  relative viability: 1.17
[1]; first compound 2 µM
  relative viability: 1.21
[1]; first compound 6.325 µM
  relative viability: 1.11
[1]; first compound 20 µM
  relative viability: 1.24
[2]; first compound 0.2 µM
  relative viability: 0.82
[2]; first compound 0.6325 µM
  relative viability: 0.597
[2]; first compound 2 µM
  relative viability: 0.682
[2]; first compound 6.325 µM
  relative viability: 0.699
[2]; first compound 20 µM
  relative viability: 0.698
[3]; first compound 0.2 µM
  relative viability: 0.826
[3]; first compound 0.6325 µM
  relative viability: 0.737
[3]; first compound 2 µM
  relative viability: 0.712
[3]; first compound 6.325 µM
  relative viability: 0.706
[3]; first compound 20 µM
  relative viability: 0.684
[4]; first compound 0.001581 µM
  relative viability: 0.297
[4]; first compound 0.005 µM
  relative viability: 0.382
[4]; first compound 0.01581 µM
  relative viability: 0.268
[4]; first compound 0.05 µM
  relative viability: 0.307

## NCI-H2228
[1]; first compound 0.2 µM
  relative viability: 0.77
[1]; first compound 0.6325 µM
  relative viability: 0.721
[1]; first compound 2 µM
  relative viability: 0.516
[1]; first compound 6.325 µM
  relative viability: 0.813
[1]; first compound 20 µM
  relative viability: 0.679
[2]; first compound 0.2 µM
  relative viability: 0.557
[2]; first compound 0.6325 µM
  relative viability: 0.56
[2]; first compound 2 µM
  relative viability: 0.602
[2]; first compound 6.325 µM
  relative viability: 0.583
[2]; first compound 20 µM
  relative viability: 0.727
[3]; first compound 0.2 µM
  relative viability: 0.978
[3]; first compound 0.6325 µM
  relative viability: 0.443
[3]; first compound 2 µM
  relative viability: 0.695
[3]; first compound 6.325 µM
  relative viability: 0.175
[3]; first compound 20 µM
  relative viability: 0.486
[4]; first compound 0.001581 µM
  relative viability: 0.437
[4]; first compound 0.005 µM
  relative viability: 0.506
[4]; first compound 0.01581 µM
  relative viability: 0.478
[4]; first compound 0.05 µM
  relative viability: 0.139

## PC-14
[1]; first compound 0.2 µM
  relative viability: 1.08
[1]; first compound 0.6325 µM
  relative viability: 0.958
[1]; first compound 2 µM
  relative viability: 0.95
[1]; first compound 6.325 µM
  relative viability: 0.867
[1]; first compound 20 µM
  relative viability: 0.217
[2]; first compound 0.2 µM
  relative viability: 1.12
[2]; first compound 0.6325 µM
  relative viability: 0.811
[2]; first compound 2 µM
  relative viability: 0.855
[2]; first compound 6.325 µM
  relative viability: 0.741
[2]; first compound 20 µM
  relative viability: 0.159
[3]; first compound 0.2 µM
  relative viability: 0.74
[3]; first compound 0.6325 µM
  relative viability: 0.923
[3]; first compound 2 µM
  relative viability: 0.693
[3]; first compound 6.325 µM
  relative viability: 0.768
[3]; first compound 20 µM
  relative viability: 0.0952
[4]; first compound 0.001581 µM
  relative viability: 0.258
[4]; first compound 0.005 µM
  relative viability: 0.302
[4]; first compound 0.01581 µM
  relative viability: 0.219
[4]; first compound 0.05 µM
  relative viability: 0.257

## EKVX
[1]; first compound 0.2 µM
  relative viability: 0.335
[1]; first compound 0.6325 µM
  relative viability: 0.935
[1]; first compound 2 µM
  relative viability: 0.856
[1]; first compound 6.325 µM
  relative viability: 0.886
[1]; first compound 20 µM
  relative viability: 0.656
[2]; first compound 0.2 µM
  relative viability: 0.513
[2]; first compound 0.6325 µM
  relative viability: 0.669
[2]; first compound 2 µM
  relative viability: 0.555
[2]; first compound 6.325 µM
  relative viability: 0.686
[2]; first compound 20 µM
  relative viability: 0.591
[3]; first compound 0.6325 µM
  relative viability: 0.745
[3]; first compound 2 µM
  relative viability: 0.691
[3]; first compound 6.325 µM
  relative viability: 0.794
[3]; first compound 20 µM
  relative viability: 0.395
[4]; first compound 0.001581 µM
  relative viability: 0.502
[4]; first compound 0.005 µM
  relative viability: 0.615
[4]; first compound 0.05 µM
  relative viability: 0.627
